Data from publication PMC8956058, “Cembranolides and Related Constituents from the Soft Coral Sarcophyton cinereum” (Molecules, 2022).
Like-named read-outs stand apart in the source and are kept apart here.

How the values were obtained:
Assay type in all cases: cell-based
[1] = system: DLD-1 cells (human colorectal adenocarcinoma); test: Alamar Blue cytotoxicity / anti-proliferation assay, DLD-1; conditions: triplicate, read-out: Anti-proliferation activities (IC50) DLD-1
Description: (§1) The assay was implemented according to the published protocols. In brief, the Alamar Blue assay was performed for compounds 2–19 by treating them with P388, DLD-1, HuCC-T1, and CCD966SK cancer cells, which were commercially available from the American Type Culture Collection (ATCC). The test was performed in triplicate, and doxorubicin was used as a positive control.

[2] = system: CCD966SK cells (human skin fibroblast); test: Alamar Blue cytotoxicity / anti-proliferation assay, CCD966SK; conditions: triplicate, read-out: Anti-proliferation activities (IC50) CCD966SK
Description: as §1

[3] = system: HuCCT-1 cells (human intrahepatic cholangiocarcinoma); test: Alamar Blue cytotoxicity / anti-proliferation assay, HuCCT-1; conditions: triplicate, read-out: Anti-proliferation activities (IC50) HuCCT-1
Description: as §1

[4] = system: P388 cells (mouse lymphoma); test: Alamar Blue cytotoxicity / anti-proliferation assay, P388; conditions: triplicate, read-out: Anti-proliferation activities (IC50) P388
Description: as §1

[5] = Homo sapiens, DLD-1, DLD-1 human colorectal adenocarcinoma
[6] = Homo sapiens, HuCCT-1, HuCCT-1 human intrahepatic cholangiocarcinoma
[7] = Mus musculus, P388, P388 mouse lymphoma
[8] = DLD-1 human colorectal adenocarcinoma
[9] = HuCCT-1 human intrahepatic cholangiocarcinoma

How did the IC50 [1, 5] turn out when `CC1=CCCC2(C)OC2CCC(C)=CC=C(C(C)(C)O)CC1` (stereo not drawn) [Compound 7, 2-[(E,E,E)-7′,8′-epoxy-4′,8′,12′-trimethylcyclotetradeca-1′,3′,11′-trienyl]propan-2-ol] was run?
Its IC50 is greater than 30 µM.

What about the IC50 ([2]; Homo sapiens, Skin fibroblast) of the same molecule?
Its IC50 is greater than 30 µM.

And the IC50 [3, 6]?
The IC50 was greater than 30 µM.

And the IC50 [4, 7]?
The IC50 was greater than 30 µM.

With `CC1=C2CC[C@@]3(C)O[C@@H]3CC/C(C)=C/CC[C@@](C)(O)/C=C/2OC1=O` [Compound 9, cherbonolide L] as the molecule, how does the IC50 [1, 5] read?
Its IC50 is greater than 30 µM.

And the IC50 ([2]; Homo sapiens, Skin fibroblast)?
The IC50 was greater than 30 µM.

What about the IC50 [3, 6] of the same molecule?
Its IC50 is greater than 30 µM.

And the IC50 [4, 7]?
The IC50 was greater than 30 µM.

With `CC1=C2CC[C@@]3(C)O[C@@H]3CC/C(C)=C/CC/C(C)=C/[C@H]2OC1=O` [Compound 11, (–)-(2R)-isosarcophine] as the molecule, how does the IC50 [1, 5] read?
Its IC50 is greater than 30 µM.

And the IC50 ([2]; Homo sapiens, Skin fibroblast)?
Its IC50 is greater than 30 µM.

And the IC50 [3, 6]?
The IC50 was greater than 30 µM.

And the IC50 [4, 7]?
The IC50 was greater than 30 µM.

What does the source list for `C=C1CC[C@H]2O[C@]2(C)CCC2=C(C)CO[C@H]2/C=C(\C)CC[C@@H]1OC(C)=O` [Compound 4, sarcophytonoxide E]?
IC50 [1, 5]: > 30 µM; IC50 ([2]; Homo sapiens, Skin fibroblast): > 30 µM; IC50 [3, 6]: > 30 µM; IC50 [4, 7]: > 30 µM

What does the source list for `CC(C)C1(O)C=CC(C)(O)CCC(O)C2(C)CCC=C(CC1)C(=O)O2` (stereo not drawn) [Compound 3, Cinerenolide C]?
IC50 [1, 8]: > 30 µM; IC50 [2]: > 30 µM; IC50 [3, 9]: > 30 µM; IC50 ([4]; P388 mouse lymphoma): > 30 µM

With `CC1=C2CC[C@@]3(C)O[C@@H]3CC/C(C)=C/CC/C(C)=C/[C@@H]2OC1=O` [Compound 10, (+)-(2S)-isosarcophine] as the molecule, how does the IC50 [1, 5] read?
Its IC50 is greater than 30 µM.

What about the IC50 ([2]; Homo sapiens, Skin fibroblast) of the same molecule?
Its IC50 is greater than 30 µM.

What about the IC50 [3, 6] of the same molecule?
The IC50 was greater than 30 µM.

What about the IC50 [4, 7] of the same molecule?
The IC50 was greater than 30 µM.

With isosarcophytonolide D [Compound 15] as the molecule, how does the IC50 [1, 8] read?
The IC50 was greater than 30 µM.

And the IC50 [2]?
The IC50 was 27.6 ± 7.8 µM.

What about the IC50 [3, 9] of the same molecule?
The IC50 was greater than 30 µM.

What about the IC50 ([4]; P388 mouse lymphoma) of the same molecule?
Its IC50 is greater than 30 µM.

Which IC50 [1, 8] does the source give for `CC(=O)OC1CC(C)=CCCC(C)=CC(=O)CC23C(=O)OC(C1C(C)C)C2CC(C)=C1CCC2=CCCC(C)(OC2=O)C(O)CCC(C)=CC13` (stereo not drawn) [Compound 16, glaucumolide A] here?
Its IC50 is greater than 30 µM.

And the IC50 ([2]; Homo sapiens, Skin fibroblast)?
The IC50 was 21.3 ± 5.8 µM.

What about the IC50 [3, 9] of the same molecule?
The IC50 was 19.1 ± 6.4 µM.

What about the IC50 ([4]; P388 mouse lymphoma) of the same molecule?
Its IC50 is 16.7 ± 5.8 µM.

How did the IC50 [1, 8] turn out when `CC(=O)OC1CC(C)=CCCC(C)=CC(=O)CC23C(=O)OC(C1C(C)C)C2CC(C)=C1CCC2=CCCC(C)(OC2=O)C(O)CCC(C)=CC13` (stereo not drawn) [Compound 18, bistrochelide A] was run?
Its IC50 is 9.9 ± 1 µM.

What about the IC50 [2] of the same molecule?
The IC50 was 18.8 ± 6.9 µM.

What about the IC50 [3, 9] of the same molecule?
The IC50 was 2 ± 0.1 µM.

What about the IC50 ([4]; P388 mouse lymphoma) of the same molecule?
The IC50 was 10.6 ± 1.9 µM.

`CC(=O)O[C@H]1/C=C(\C)CC[C@H]2O[C@]2(C)CCC2=C(C)CO[C@H]2/C=C(\C)C1` [Compound 12, sarcophytonoxide A] was tested. Which IC50 [1, 5] did it give?
Its IC50 is greater than 30 µM.

And the IC50 ([2]; Homo sapiens, Skin fibroblast)?
Its IC50 is greater than 30 µM.

And the IC50 [3, 6]?
The IC50 was greater than 30 µM.

And the IC50 [4, 7]?
The IC50 was greater than 30 µM.

What does the source list for `COc1cccc2c1C(=O)c1c(O)c3c(c(O)c1C2=O)C[C@@](O)(C(=O)CO)C[C@@H]3O[C@H]1C[C@H](N)[C@H](O)[C@H](C)O1` [Doxorubicin, doxorubicin, reference compound]?
IC50 [1, 5]: 4.1 ± 0.7 µM; IC50 ([2]; Homo sapiens, Skin fibroblast): 2.9 ± 0.4 µM; IC50 [3, 6]: 1.9 ± 0.1 µM; IC50 [4, 7]: 0.69 ± 0.01 µM

How did the IC50 [1, 5] turn out when `CC1=C2CC[C@@]3(C)O[C@@H]3CC[C@@](C)(OO)/C=C/C/C(C)=C/[C@@H]2OC1=O` [Compound 5, sarcomililatin A] was run?
The IC50 was greater than 30 µM.

What about the IC50 ([2]; Homo sapiens, Skin fibroblast) of the same molecule?
Its IC50 is greater than 30 µM.

What about the IC50 [3, 6] of the same molecule?
Its IC50 is greater than 30 µM.

What about the IC50 [4, 7] of the same molecule?
The IC50 was 15.2 ± 3.2 µM.

Which IC50 [1, 5] does the source give for `COC(=O)/C1=C\C=C(\C(C)C)CCC2=CCC[C@](C)(OC2=O)C(=O)CC1` [Compound 14, ketoemblide] here?
The IC50 was greater than 30 µM.

And the IC50 ([2]; Homo sapiens, Skin fibroblast)?
The IC50 was greater than 30 µM.

And the IC50 [3, 6]?
The IC50 was greater than 30 µM.

What about the IC50 [4, 7] of the same molecule?
The IC50 was greater than 30 µM.

`CC(C)C1(O)C=CC(C)(O)CCC(O)C2(C)CCC=C(CC1)C(=O)O2` (stereo not drawn) [Compound 2, Cinerenolide B] was tested. Which IC50 [1, 5] did it give?
Its IC50 is greater than 30 µM.

And the IC50 ([2]; Homo sapiens, Skin fibroblast)?
The IC50 was greater than 30 µM.

What about the IC50 [3, 6] of the same molecule?
Its IC50 is greater than 30 µM.

What about the IC50 [4, 7] of the same molecule?
The IC50 was greater than 30 µM.

Which results are given for `CC(=O)OC1CC(C)=CCCC(C)=CC(=O)CC23C(=O)OC(C1C(C)C)C2CC(C)=C1CCC2=CCCC(C)(OC2=O)C(O)CCC(C)=CC13` (stereo not drawn) [Compound 17, glaucumolide B]?
IC50 [1, 8]: > 30 µM; IC50 [2]: 26.1 ± 10.3 µM; IC50 [3, 9]: > 30 µM; IC50 ([4]; P388 mouse lymphoma): 22.8 ± 9.7 µM

`C=C1CC[C@H]2O[C@]2(C)CCC2=C(C)C(=O)O[C@H]2/C=C(\C)CC[C@H]1OO` [Compound 6, sarcomililatin B] was tested. Which IC50 [1, 5] did it give?
Its IC50 is greater than 30 µM.

What about the IC50 ([2]; Homo sapiens, Skin fibroblast) of the same molecule?
The IC50 was greater than 30 µM.

And the IC50 [3, 6]?
Its IC50 is greater than 30 µM.

And the IC50 [4, 7]?
Its IC50 is 11.8 ± 4.6 µM.

`C/C1=C\[C@H](O)CC2=C[C@@H](OC2=O)[C@H](C(C)C)CC/C(C)=C/CC1` [Compound 8, sarcophytonolide F] was tested. Which IC50 [1, 5] did it give?
The IC50 was greater than 30 µM.

What about the IC50 ([2]; Homo sapiens, Skin fibroblast) of the same molecule?
Its IC50 is greater than 30 µM.

And the IC50 [3, 6]?
Its IC50 is greater than 30 µM.

What about the IC50 [4, 7] of the same molecule?
The IC50 was greater than 30 µM.

What does the source list for `CC(C)/C1=C/[C@@H](O)[C@]2(C)O[C@@H]2C[C@@H](O)[C@@]2(C)CCC=C(CC1)C(=O)O2` [Compound 13, sartrolide C]?
IC50 [1, 5]: > 30 µM; IC50 ([2]; Homo sapiens, Skin fibroblast): > 30 µM; IC50 [3, 6]: > 30 µM; IC50 [4, 7]: > 30 µM
